Source: US5541229A, “Benzimidazoles and medicaments containing these compounds” (Dr. Karl Thomae GmbH, priority 1989, dated 1996)
Where two headings read alike, the source gives them in different places.

What was measured:
angiotensin II = molecular target: T1, angiotensin II (Rattus norvegicus, UniProt P25095); test: displacement of angiotensin II dose-effect curves (increase in arterial blood pressure) in rats, pA2; type: in vivo; conditions: average, angiotensin II antagonism in rats, 10, 20 and 30 mg/kg i.v.
T1 construct: The measured parameter is the increase in the arterial blood pressure; from tissue; host or cells: whole anaesthetised rat with destroyed spine, in vivo (vascular receptors)
T1 sequence (P25095 1-359): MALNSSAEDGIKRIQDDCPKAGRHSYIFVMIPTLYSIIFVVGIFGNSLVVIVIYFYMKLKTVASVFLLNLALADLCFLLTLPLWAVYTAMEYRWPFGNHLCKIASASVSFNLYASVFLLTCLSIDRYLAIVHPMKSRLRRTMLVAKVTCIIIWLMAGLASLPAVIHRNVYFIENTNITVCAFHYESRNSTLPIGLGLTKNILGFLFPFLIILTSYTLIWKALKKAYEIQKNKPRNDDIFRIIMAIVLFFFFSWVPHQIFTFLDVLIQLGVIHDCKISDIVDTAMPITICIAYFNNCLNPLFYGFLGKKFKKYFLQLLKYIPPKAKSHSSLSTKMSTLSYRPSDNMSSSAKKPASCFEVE
Protocol: a) rats (male, 180-220 g) are anaesthetised using sodium hexobarbital (150 mg/kg i.p.). After the anaesthetic has taken effect, a tracheal cannula is inserted, the spine is destroyed in the animals and then they are immediately respirated artifically using a respiratory pump. The arterial blood pressure is recorded via a cannula in the carotid artery by means of a Bell & Howell pressure sensor. Substances are administered via a cannula in the jugular vein. Test substances are administered in three doses (10, 20 and 30 mg/kg i.v.), wherein one dose of substance is tested per animal. […] The measured parameter is the increase in the arterial blood pressure. These dose-effect graphs are compared with standard graphs for angiotensin II without test substances. A computer program determines the displacements to the right of the dose-effect graphs for angiotensin II as a result of test substances, and calculates corresponding pA2 values for the test substances.

[1] = molecular target: T2, bovine adrenal gland receptor preparations (Bos taurus, UniProt P25104); test: inhibition of angiotensin II bonding to bovine adrenal gland receptor preparations; type: binding
T2 construct: aliquots of a membrane preparation of bovine adrenal cortex in tris buffer; from tissue; host or cells: bovine adrenal cortex membranes
T2 sequence (P25104 1-359): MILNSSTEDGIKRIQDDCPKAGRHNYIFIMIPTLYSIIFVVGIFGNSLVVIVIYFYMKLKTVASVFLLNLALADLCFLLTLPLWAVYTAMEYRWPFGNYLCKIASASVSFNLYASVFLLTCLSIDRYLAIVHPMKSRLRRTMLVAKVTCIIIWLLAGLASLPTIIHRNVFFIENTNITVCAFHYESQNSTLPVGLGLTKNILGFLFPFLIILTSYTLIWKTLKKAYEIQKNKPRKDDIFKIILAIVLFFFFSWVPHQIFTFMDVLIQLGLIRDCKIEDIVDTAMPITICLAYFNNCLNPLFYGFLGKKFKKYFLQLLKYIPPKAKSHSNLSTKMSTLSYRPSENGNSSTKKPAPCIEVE
Protocol: After 45 minutes the incubation was stopped by rapid filtration through glass fibre filters. The radioactivity associated with the filter was determined in a […] at a counting efficiency of 80%.

## CCCCC(=O)Nc1ccc2nc(CCCC)n(Cc3ccc(-c4ccccc4C(=O)O)cc3)c2c1 [K]
Angiotensin II
  pA2 values: 6,38
[1]
  IC50: 0.057 µM

## CCCCc1nc2ccc(NC(=O)C3CCCCC3)cc2n1Cc1ccc(-c2ccccc2C(=O)O)cc1 [V]
Angiotensin II
  pA2 values: 7,26
[1]; 50% inhibition of the specific 125I-angiotensin II (50 pM) bonding, bovine adrenal cortex membranes, 45 minutes
  IC50: 0.084 µM

## CCCCc1nc2ccc(N(C)C(=O)NC3CCCCC3)cc2n1Cc1ccc(-c2ccccc2C(=O)O)cc1 [E]
Angiotensin II
  pA2 values: 7,34
[1]
  IC50: 0.046 µM

## CCCCc1nc2ccc(N(Cc3ccccc3)C(=O)N(C)C)cc2n1Cc1ccc(-c2ccccc2C(=O)O)cc1 [Z]
Angiotensin II
  pA2 values: 7,15
[1]
  IC50: 0.133 µM

## CCCCc1nc2ccc(N(CCCC)C(=O)NC3CCCCC3)cc2n1Cc1ccc(-c2ccccc2C(=O)O)cc1 [B]
Angiotensin II
  pA2 values: 6,63
[1]
  IC50: 0.029 µM

## CCCCc1nc2ccc(NC(=O)C(C)C)cc2n1Cc1ccc(-c2ccccc2C(=O)O)cc1 [M]
Angiotensin II
  pA2 values: 6,87
[1]
  IC50: 0.061 µM

## CCCCc1nc2ccc(N(Cc3ccccc3)C(=O)OCC)cc2n1Cc1ccc(-c2ccccc2C(=O)O)cc1 [Q]
Angiotensin II
  pA2 values: 6,83
[1]
  IC50: 0.068 µM

## CCCCNC(=O)Nc1ccc2nc(CCCC)n(Cc3ccc(-c4ccccc4C(=O)O)cc3)c2c1 [O]
Angiotensin II
  pA2 values: 6,46
[1]
  IC50: 0.065 µM

## CCCCc1nc2ccc(N(CCC)C(=O)NC3CCCCC3)cc2n1Cc1ccc(-c2ccccc2C(=O)O)cc1 [D]
Angiotensin II
  pA2 values: 6,59
[1]
  IC50: 0.044 µM

## CCCCc1nc2ccc(N3C(=O)[C@H]4CCCC[C@H]4C3=O)cc2n1Cc1ccc(-c2ccccc2-c2nn[nH]n2)cc1 [CC]
Angiotensin II
  pA2 values: 8,54
[1]
  IC50: 1 µM

## CCCCc1nc2ccc(N3C(=O)[C@H]4CCCC[C@H]4C3=O)cc2n1Cc1ccc(-c2ccccc2C(=O)O)cc1 [Y]
Angiotensin II
  pA2 values: 6,97
[1]
  IC50: 0.15 µM

## CCCCc1nc2ccc(N(Cc3ccccc3)C(=O)NC)cc2n1Cc1ccc(-c2ccccc2C(=O)O)cc1 [H]
Angiotensin II
  pA2 values: 6,48
[1]
  IC50: 0.051 µM

## CCCCc1nc2ccc(NC(=O)N(C)C)cc2n1Cc1ccc(-c2ccccc2C(=O)O)cc1 [R]
Angiotensin II
  pA2 values: 7,16
[1]
  IC50: 0.072 µM

## CCCCc1nc2ccc(N(Cc3ccccc3)C(=O)NC3CCCCC3)cc2n1Cc1ccc(-c2ccccc2C(=O)O)cc1 [J]
Angiotensin II
  pA2 values: 7,38
[1]
  IC50: 0.054 µM

## CCCCc1nc2ccc(NC(=O)CC)cc2n1Cc1ccc(-c2ccccc2C(=O)O)cc1 [L]
Angiotensin II
  pA2 values: 6,04
[1]
  IC50: 0.058 µM

## CCCCNC(=O)N(C)c1ccc2nc(CCCC)n(Cc3ccc(-c4ccccc4C(=O)O)cc3)c2c1 [W]
Angiotensin II
  pA2 values: 6,28
[1]
  IC50: 0.086 µM

## CCCCCCNC(=O)N(Cc1ccccc1)c1ccc2nc(CCCC)n(Cc3ccc(-c4ccccc4C(=O)O)cc3)c2c1 [A]
Angiotensin II
  pA2 values: 7,23
[1]
  IC50: 0.029 µM

## CCCCc1nc2ccc(NC(=O)CCC)cc2n1Cc1ccc(-c2ccccc2C(=O)O)cc1 [P]
Angiotensin II
  pA2 values: 6,46
[1]
  IC50: 0.067 µM

## CCCCCCNC(=O)N(CCc1ccccc1)c1ccc2nc(CCCC)n(Cc3ccc(-c4ccccc4C(=O)O)cc3)c2c1 [AA]
[1]
  IC50: 0.1 µM

## CCCCc1nc2ccc(NC(=O)NCCCCCO)cc2n1Cc1ccc(-c2ccccc2C(=O)O)cc1 [T]
Angiotensin II
  pA2 values: 7,20
[1]
  IC50: 0.076 µM

## CCCCc1nc2ccc(NC(=O)C3CCCC3)cc2n1Cc1ccc(-c2ccccc2C(=O)O)cc1 [BB]
[1]
  IC50: 0.046 µM

## CCCCCN(C(=O)NC1CCCCC1)c1ccc2nc(CCCC)n(Cc3ccc(-c4ccccc4C(=O)O)cc3)c2c1 [G]
Angiotensin II
  pA2 values: 6,89
[1]
  IC50: 0.046 µM

## CCCCc1nc2c(C)ccc(O)c2n1Cc1ccc(-c2ccccc2-c2nn[nH]n2)cc1 [X]
Angiotensin II
  pA2 values: 6,57
[1]
  IC50: 0.099 µM

## CCCCc1nc2ccc(N3Cc4ccccc4C3=O)cc2n1Cc1ccc(-c2ccccc2C(=O)O)cc1 [I]
Angiotensin II
  pA2 values: 6,12
[1]
  IC50: 0.051 µM

## CCCCCCN(C(=O)NC1CCCCC1)c1ccc2nc(CCCC)n(Cc3ccc(-c4ccccc4C(=O)O)cc3)c2c1 [S]
Angiotensin II
  pA2 values: 6,69
[1]
  IC50: 0.072 µM

## CCCCc1nc2ccc(NC(=O)NC3CCCCO3)cc2n1Cc1ccc(-c2ccccc2C(=O)O)cc1 (stereo not drawn) [N]
Angiotensin II
  pA2 values: 7,02
[1]
  IC50: 0.065 µM

## CCCCCN(C(=O)NC)c1ccc2nc(CCCC)n(Cc3ccc(-c4ccccc4C(=O)O)cc3)c2c1 [U]
Angiotensin II
  pA2 values: 7,20
[1]
  IC50: 0.079 µM

## CCCCc1nc2ccc(N(CC)C(=O)NC3CCCCC3)cc2n1Cc1ccc(-c2ccccc2C(=O)O)cc1 [C]
Angiotensin II
  pA2 values: 6,36
[1]
  IC50: 0.031 µM
